This passage reports IC50 results from ChEMBL document CHEMBL4665758, “Identification of 5H-chromeno[3,4-c]pyridine and 6H-isochromeno[3,4-c]pyridine derivatives as potent and selective dual ROCK inhibitors” (Bioorg Med Chem Lett, 2020).

The target of assay [1] is Rho-associated protein kinase 1 (Homo sapiens, UniProt Q13464).
Assay [2] has as its target Rho-associated protein kinase 2 (Homo sapiens, UniProt O75116).

Sequence of Rho-associated protein kinase 1 (Q13464 whole entry): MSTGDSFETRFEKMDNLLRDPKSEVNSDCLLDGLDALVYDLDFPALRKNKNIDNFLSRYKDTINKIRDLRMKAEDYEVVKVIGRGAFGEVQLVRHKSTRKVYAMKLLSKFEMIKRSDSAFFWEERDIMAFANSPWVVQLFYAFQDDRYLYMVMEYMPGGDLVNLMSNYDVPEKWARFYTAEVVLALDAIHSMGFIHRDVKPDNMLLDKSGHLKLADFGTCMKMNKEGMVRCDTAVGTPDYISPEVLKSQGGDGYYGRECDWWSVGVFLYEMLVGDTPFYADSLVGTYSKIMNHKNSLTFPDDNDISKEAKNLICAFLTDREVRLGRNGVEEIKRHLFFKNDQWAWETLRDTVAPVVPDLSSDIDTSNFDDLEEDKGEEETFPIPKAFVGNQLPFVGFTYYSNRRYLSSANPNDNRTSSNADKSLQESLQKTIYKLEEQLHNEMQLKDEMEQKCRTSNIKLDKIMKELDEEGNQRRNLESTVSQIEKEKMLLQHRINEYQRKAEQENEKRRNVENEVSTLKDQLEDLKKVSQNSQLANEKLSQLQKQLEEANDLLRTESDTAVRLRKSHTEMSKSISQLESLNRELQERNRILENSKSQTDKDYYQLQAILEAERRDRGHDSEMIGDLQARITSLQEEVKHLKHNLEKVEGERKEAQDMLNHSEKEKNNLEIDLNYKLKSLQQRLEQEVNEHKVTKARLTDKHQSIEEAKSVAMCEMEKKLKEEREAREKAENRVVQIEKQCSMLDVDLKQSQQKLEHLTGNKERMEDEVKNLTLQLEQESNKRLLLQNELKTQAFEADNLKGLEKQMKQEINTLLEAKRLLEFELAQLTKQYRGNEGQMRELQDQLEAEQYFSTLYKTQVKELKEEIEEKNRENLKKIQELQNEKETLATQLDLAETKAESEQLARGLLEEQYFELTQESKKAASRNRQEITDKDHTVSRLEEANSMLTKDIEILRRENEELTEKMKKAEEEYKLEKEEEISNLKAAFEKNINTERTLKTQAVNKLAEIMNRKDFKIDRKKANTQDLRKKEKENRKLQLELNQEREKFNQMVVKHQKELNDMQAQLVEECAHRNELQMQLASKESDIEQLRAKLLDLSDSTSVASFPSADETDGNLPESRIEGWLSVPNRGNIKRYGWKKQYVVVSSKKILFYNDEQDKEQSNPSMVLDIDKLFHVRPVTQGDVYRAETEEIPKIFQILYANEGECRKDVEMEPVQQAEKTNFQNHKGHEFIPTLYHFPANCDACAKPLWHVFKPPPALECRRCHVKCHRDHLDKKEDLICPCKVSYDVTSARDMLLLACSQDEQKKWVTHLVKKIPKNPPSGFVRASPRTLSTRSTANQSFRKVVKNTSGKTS
Sequence of Rho-associated protein kinase 2 (O75116 whole entry): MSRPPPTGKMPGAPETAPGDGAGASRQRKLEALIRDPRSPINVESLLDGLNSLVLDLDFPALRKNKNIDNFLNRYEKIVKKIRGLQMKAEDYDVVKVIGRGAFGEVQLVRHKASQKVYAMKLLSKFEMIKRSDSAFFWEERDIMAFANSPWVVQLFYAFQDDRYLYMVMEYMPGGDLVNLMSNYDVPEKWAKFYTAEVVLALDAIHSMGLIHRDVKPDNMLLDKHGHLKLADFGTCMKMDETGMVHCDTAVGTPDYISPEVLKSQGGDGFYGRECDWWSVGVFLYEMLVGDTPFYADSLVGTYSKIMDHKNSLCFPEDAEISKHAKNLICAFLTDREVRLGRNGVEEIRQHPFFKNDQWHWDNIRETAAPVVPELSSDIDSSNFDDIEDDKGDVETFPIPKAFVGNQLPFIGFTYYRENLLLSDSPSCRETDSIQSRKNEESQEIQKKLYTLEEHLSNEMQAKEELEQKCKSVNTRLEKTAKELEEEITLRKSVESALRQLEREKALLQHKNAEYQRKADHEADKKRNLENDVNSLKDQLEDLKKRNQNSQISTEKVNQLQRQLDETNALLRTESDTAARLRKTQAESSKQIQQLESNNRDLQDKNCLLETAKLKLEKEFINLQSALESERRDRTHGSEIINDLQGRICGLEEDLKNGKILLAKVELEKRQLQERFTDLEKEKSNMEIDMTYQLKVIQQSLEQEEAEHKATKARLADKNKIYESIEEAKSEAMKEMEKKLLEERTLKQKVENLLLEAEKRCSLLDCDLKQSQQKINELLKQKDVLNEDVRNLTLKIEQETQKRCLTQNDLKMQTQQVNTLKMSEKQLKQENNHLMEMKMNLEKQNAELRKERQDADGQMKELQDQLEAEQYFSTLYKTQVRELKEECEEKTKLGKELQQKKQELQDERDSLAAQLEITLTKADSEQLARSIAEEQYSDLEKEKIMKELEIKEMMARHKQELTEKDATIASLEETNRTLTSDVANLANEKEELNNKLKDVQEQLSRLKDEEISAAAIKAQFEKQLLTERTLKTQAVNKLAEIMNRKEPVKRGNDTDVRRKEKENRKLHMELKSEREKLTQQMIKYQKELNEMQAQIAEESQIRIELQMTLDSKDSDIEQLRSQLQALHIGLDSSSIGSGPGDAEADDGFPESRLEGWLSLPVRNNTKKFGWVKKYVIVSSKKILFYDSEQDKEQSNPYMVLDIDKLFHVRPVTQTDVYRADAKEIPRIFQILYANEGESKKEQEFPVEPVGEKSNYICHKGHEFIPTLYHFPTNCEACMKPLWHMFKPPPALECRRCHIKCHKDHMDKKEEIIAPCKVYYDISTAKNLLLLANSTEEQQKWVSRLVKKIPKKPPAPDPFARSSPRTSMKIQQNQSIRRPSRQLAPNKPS

What is called IC50 is the concentration at which inhibition is half-maximal. Low readings indicate greater potency in that assay, high ones weaker potency in that assay. Consider `N[C@@H](C(=O)Nc1ccc2c(c1)OCc1cnccc1-2)c1ccccc1`, for which, in assay [1], 16 nM corresponded to half-maximal inhibition (IC50).

Consider `COc1cccc([C@@H](C)NC(=O)c2ccc3c(c2)OC(C)c2cnccc2-3)c1` (mixture of isomers), for which, in assay [1], it took 15 nM to reach half-maximal inhibition (IC50). `N[C@H](Cc1ccccc1)C(=O)Nc1ccc2c(c1)OCc1cnccc1-2` displayed an IC50 in assay [1] of 19 nM. On the same count and under the same terms, as for `CCC1Oc2cnccc2-c2ccc(C(=O)N[C@H](C)c3cccc(OC)c3)cc21` (stereo in doubt; 19), the figure is 0.67 nM; as for `COc1cccc([C@@H](C)NC(=O)c2ccc3c(c2)C(C2CC2)Oc2cnccc2-3)c1` (some centres not stated), 4.1 nM; as for `C[C@@H](NC(=O)c1ccc2c(c1)OCc1cnccc1-2)c1ccccc1`, 18 nM. On the same count and under the same terms, as for `CCC1Oc2cnccc2-c2ccc(C(=O)N[C@H](C)c3cccc(OC)c3)cc21` (mixture of isomers), the figure is 0.63 nM. Still for that read-out and setting: for `COc1cccc([C@@H](C)NC(=O)c2ccc3c(c2)COc2cnc(N)cc2-3)c1` the value was 171 nM; for `CCC1Oc2cnccc2-c2ccc(C(=O)N[C@H](C)c3cccc(OC)c3)cc21` (stereo in doubt; 18), 2 nM. `COc1cccc([C@@H](C)NC(=O)c2ccc3c(c2)C(C)Oc2cnccc2-3)c1` (some centres not stated) returned an IC50 in assay [1] of 0.49 nM.

Consider `O=C(Cc1ccccc1)Nc1ccc2c(c1)OCc1cnccc1-2`, for which the IC50 in assay [1] worked out at 140 nM. Against the preceding compound, the IC50 is about 290-fold higher. Same read-out and setting: as for `COc1cccc(C(C)NC(=O)c2ccc3c(c2)OCc2cnccc2-3)n1` (configuration not stated), the figure is 27 nM. On the same count and under the same terms, as for `COc1cccc([C@@H](C)NC(=O)c2ccc3c(c2)COc2cncnc2-3)c1`, the figure is 38 nM. `C[C@H]1CNCCCN1S(=O)(=O)c1cccc2cncc(F)c12` gave an IC50 in assay [2] of 20 nM. This counts as double-digit nanomolar.

As to `CCN1CCC[C@H]1CNC(=O)c1cccc(CNC(=O)c2ccc3c(c2)C(C)Oc2cnccc2-3)c1` (mixture of isomers), the IC50 in assay [1] was found to be 1.2 nM. Still for that read-out and setting: as for `CCNC(=O)c1cc(CNC(=O)c2ccc3c(c2)C(CC)Oc2cnccc2-3)ccc1F` (racemic), the figure is 20 nM.

`N[C@@H](COc1ccc2c(c1)OCc1cnccc1-2)Cc1ccccc1` registered an IC50 in assay [1] of 71 nM. This IC50 is about 3.5-fold higher than that of the compound before.
